From PubChem BioAssay (NCI)
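Dose response: 5 concentrations. Exposure: 48 h. Format: 96-well plates. Endpoint: linear interpolation; highest concentration if not reached. GI50 marks 50% less growth. Definition used: TGI = concentration required for complete inhibition of growth.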

Tests used:
Assay in all cases: NCI anticancer screen, dose series, 48 h
SW-620 colon = system: SW-620 colon
OVCAR-3 ovarian = system: OVCAR-3 ovarian
RXF 393 renal = system: RXF 393 renal
NCI-H460 lung = system: NCI-H460 lung
UACC-257 melanoma = system: UACC-257 melanoma
OVCAR-4 ovarian = system: OVCAR-4 ovarian
SNB-75 CNS = system: SNB-75 CNS
MALME-3M melanoma = system: MALME-3M melanoma
MOLT-4 leukemia = system: MOLT-4 leukemia
HCT-116 colon = system: HCT-116 colon

SMILES	GI50 (SW-620 colon) [µM]	TGI (SW-620 colon) [µM]	GI50 (OVCAR-3 ovarian) [µM]	TGI (OVCAR-3 ovarian) [µM]	GI50 (RXF 393 renal) [µM]	TGI (RXF 393 renal) [µM]	GI50 (NCI-H460 lung) [µM]	TGI (NCI-H460 lung) [µM]	GI50 (UACC-257 melanoma) [µM]	TGI (UACC-257 melanoma) [µM]	GI50 (OVCAR-4 ovarian) [µM]	TGI (OVCAR-4 ovarian) [µM]	GI50 (SNB-75 CNS) [µM]	TGI (SNB-75 CNS) [µM]	GI50 (MALME-3M melanoma) [µM]	TGI (MALME-3M melanoma) [µM]	GI50 (MOLT-4 leukemia) [µM]	TGI (MOLT-4 leukemia) [µM]	TGI (HCT-116 colon) [µM]	GI50 (HCT-116 colon) [nM]
CN(C)CCCC1(c2ccc(F)cc2)OCc2cc(-c3csc4ccccc34)ccc21 (stereo not given)	1.63	3.22	1.73	3.26	1.54	2.95	1.6	3.18	1.78	3.49	1.68	3.28	1.35	2.8	1.43	2.94	1.79	3.52		
COc1ccc2cc3n(c(=O)c2c1)CCc1c-3cc(OC)c(OC)c1OC		> 100		> 100						> 100		> 100		98.6		> 100		> 100	> 100	
COc1ccc(-c2c(Nc3ccccn3)nc3c(C4=CCCCC4)c(-c4ccccc4)[nH]n3c2=O)cc1	3.07	> 100	1.94	> 100	2.55	11.6	0.645	14	5	66.3	2.31	> 100	2.99	21.6	3.93	60.2			11.8	1320
O=C(O)c1cn(C2CC2)c2cc(N3CCN(C(=O)N(c4ccccc4)c4nc(-c5ccccc5)cs4)CC3)c(F)cc2c1=O					0.272	1.49	0.296	> 100			0.526	> 100	0.334	2.8					> 100	351
C=CCN(CC=C)Cc1c[nH]c2ccccc12	26.3	> 100					21.8	62.3	8.63	28	> 100	> 100	> 100	> 100	7.83	67.7	72.7	> 100	32.1	14600
CNS(=O)(=O)NNS(=O)(=O)c1ccc(C)cc1		> 100		> 100		> 100		> 100		> 100		> 100				> 100		> 100	> 100	
c1cc(OCCCCCOc2cccc(-c3nc4ccccc4[nH]3)c2)cc(-c2nc3ccccc3[nH]2)c1	2.87	> 100	1.53	> 100			2.6	> 100	2.87	7.85	2.03	> 100	3.4	> 100	1.87	5.02			> 100	2070
CN(C)c1ccc(/C=c2/sc3nc(=O)c(-c4ccccc4NC(=O)C(F)(F)F)nn3c2=O)cc1		> 100		> 100		> 100		> 100				> 100		> 100		> 100		> 100		
C/C(=C\c1csc(C)n1)[C@@H]1C[C@@H]2O[C@]2(C)CCC[C@H](C)[C@H](O)[C@@H](C)C(=O)C(C)(C)[C@@H](O)CC(=O)N1	0.00016	0.00042	0.000158	0.000377			0.000109	0.00036	0.000138	0.000277	0.000318	0.000821	0.00161	0.048	0.000376	0.000603	0.000115	0.000214	0.0003	0.0917
O=C(CC1(O)C(=O)Nc2c(Cl)ccc(Cl)c21)c1ccc(Cl)cc1 (stereo not given)		> 100		47.4		56.8		61.9		94.7		41.4		64.9		71.8			70.6	
O=C1c2ccccc2N1C(=O)c1ccccc1[N+](=O)[O-]		> 100		88.4				> 100		> 100		> 100		> 100		> 100		> 100	> 100	
N#CC1=C(N)Oc2c(ccc3ccccc23)C1c1cc2ccccc2n2nnnc12 (stereo not given)	0.467	> 100	0.44	3.36	1.4	6.59	0.496	> 100	9.09	> 100	18.7	> 100			0.852	> 100	0.557	> 100	> 100	685
NS(=O)(=O)c1cc2c(cc1Cl)NCNS2(=O)=O		> 100		> 100				> 100		> 100		> 100		> 100		> 100		> 100	> 100	
CCCCCCCCCCN=C(N)c1ccc(N2CCN(c3ccc(C(N)=NCCCCCCCCCC)cc3)CC2)cc1	2.65	> 50	2.23	8.57	6.82	36.1	1.97	> 50	9.81	26.5	6.5	> 50	2.34	> 50	6.25	17	> 50	> 50		
COc1cc2c(cc1OCCN1CCN(CCN3C(=O)c4cccc5cccc(c45)C3=O)CC1)N=C[C@@H]1CCCN1C2=O	19.6	40	15.8	33.5	14.2	32.2	18.1	42.8	21.1	48.3	24.6	47.3	20.4	37.5			24.6	62.2		
COc1cc2c(cc1C)NC(=O)/C2=C\c1ccc(Oc2ccccc2)cc1	16.1	32.5	17.2	34.3	19.4	40.6			17.7	34	16.4	29.9	21	37.4	20.1	41.1			17.7	5850
CC(C)CCCC(C)C1CCC2C3CC([N+](=O)[O-])=C4CC(O)CCC4(C)C3CCC12C (stereo not given)		59.1		49.4		50.9				37.5		43		41.5		39.2		88.2	28.9	
Cc1ccccc1NC(=O)CC(=O)NNCC(=O)Nc1nnc(-c2ccccc2)s1		> 100		> 100				> 100		> 100		33.5		63.8				> 100	> 100	
O=S(=O)(Nc1ccccc1)c1ccc(C2CC3(Cl)C(Cl)=C(Cl)C2(Cl)C3(Cl)Cl)cc1 (stereo not given)			2.18	4.13	1.79	3.38	1.96	3.72	2.64	6.27	3.37	11.1	2.61	9.09	2.53	7.11	2.5	6.84	3.44	1810
COC(=O)N/N=C(\C)c1sc(-c2nc(C)c(/C(C)=N/NC(=O)OC)s2)nc1C				> 100		> 100		> 100		> 100		> 100		> 100		> 100		> 100	> 100	
COc1cc(/C=C/C(=O)c2nc3cc(F)ccc3nc2C)cc(OC)c1OC	5.34	> 100	2.59	> 28.1			4.05	> 100	5.51	> 100	> 40.7	> 100	9.3	> 100	1.71	> 100	1.99	> 22.3	> 51.6	3590
CCN1CCN(CC(=O)Nc2nc3ccc(NCc4ccc(Br)cc4)cc3s2)CC1					1.63	3.25			2.28	5.14	3.19	26.8	1.59	3.29	1.66	3.19			3.3	1540
CCOC(=O)C1C(NC(N)=O)N(Cc2ccccc2)C(=O)N1Cc1ccccc1 (stereo not given)		> 100		> 100				> 100		> 100		> 100		> 100		> 100		> 100	> 100	
ON1CCc2c([nH]c3ccccc23)C1c1ccc(Cl)cc1 (stereo not given)		> 100		74.5		60.3				> 100				> 100		77.6		79.7	15.4	
C/C(=C\c1ccccc1)C(O)C(=O)c1nc2ccc(Cl)cc2[nH]c1=O (stereo not given)		> 100		> 100				> 100		> 100		> 100				> 100		> 100	> 100	
